Experimental data from PMC6733874, “Zebrafish behavioural profiling identifies GABA and serotonin receptor ligands related to sedation and paradoxical excitation” (Nature Communications, 2019).
Entries after “also recorded” stand apart in the source; their conditions may differ. Like-named read-outs stand apart in the source and are kept apart here.

Experiments:
zebrafish [1] = type: in vivo; details: for rescue of behavioral phenotypes by pretreatment with the GABAAR antagonist PTX: violet light and eASR phenotypes, in words
[2] = test system: human GABAARs (α1β2 and α1β2γ2); type: cell-based
From the text: To determine if these compounds targeted human GABAARs, we tested them in a fluorescent imaging plate reader (FLIPR) assay on HEK293 cells transfected with α1β2 and α1β2γ2 human GABAAR subtypes. […]. […] While some of the compounds appeared to function in this assay as negative allosteric modulators (NAMs), reductions in fluorescence were likely due to toxicity-induced cell loss (Fig. 2f, Supplementary Table 5).
We used the FLIPR system (Molecular Devices) to quantify GABA-evoked activity of human GABAARs. We chose a membrane potential dye (Molecular Devices) to measure changes in membrane potentials and stably transfected HEK293 cells that expressed α1, β2 and γ2. Since we observed an increase in GABA-evoked responses when transfected with γ2 transiently, we describe the cells as having a low level of γ-subunit expression, indicating heterogeneity of GABAAR compositions in the cell (α1β2 or α1β2γ2). To assay for direct agonists, fluorescence was subtracted pre- and post compound addition. To assay for PAMs, cells were treated with compound at 20 uM and then with 5 uM GABA.

zebrafish [3] = test: Cortisol detection assay; type: in vivo; details: 7-day old larvae treated 1 h; in words
Description: Cortisol levels were measured in zebrafish. Briefly, 15, 7-day old larvae were treated with the indicated compounds for 1 h. Larvae were anesthetized in ice-cold egg water and then snap-froze in an ethanol/dry ice bath. Larvae were then homogenized in 100 μL of water. Cortisol was extracted from the homogenate with 1 mL of ethyl acetate, the resulting supernatant was collected and the solvent allowed to evaporate. Cortisol was dissolved in 0.2% bovine serum albumin (A7030, Sigma) and frozen at −20 °C. For cortisol ELISA experiments, 96-well plates (VWR International) were treated with cortisol antibody (P01-92-94M-P, EastCoast Bio; […] in PBS) for 16 h at 4 °C, washed, and blocked with 0.1% BSA in PBS. Cortisol samples and cortisol-HRP (P91-92-91H, EastCoast Bio) were incubated at room temperature for 2 h and washed extensively with PBS containing 0.05% Tween-20 (Invitrogen). Detection of HRP was performed using tetramethylbenzidine (TMB: 22166-1, Biomol) and Tetrabutylammonium borohydride (TBABH: 230170-10 G, Sigma). Reaction was stopped using 1 M H2SO4. Absorbance was read at 450 nm in an ELISA plate reader (SpectraMax MS, Molecular Devices).

zebrafish [4] = test: Optovin-response suppression assay (pain-related); details: in words; relative to concentrations that caused eASRs
From the text: To determine if any of the hit compounds may be analgesic, we used optovin-induced motor activity as a potential analgesia-related assay.

zebrafish [5] = type: in vivo
Description: (§1) Behavioral assays for pERK. Animals were treated with DMSO or drug for one hour then exposed to a low-volume acoustic stimulus every 10 seconds for 10 minutes. Optovin-treated animals were stimulated with violet light for one second every 10 seconds for 10 minutes. Videos were recorded to measure response to the stimulus and quantified by motion index (MI). […]

zebrafish [6] = test: Viability of anesthetic treated animals; type: in vivo; details: for alive/total 10 min: 10 minutes post treatment; for alive/total 1 hour: 1 hour post treatment; for alive/total 5 hours: 5 hours post treatment
Description: as §1, with “(MI). Animals were immediately” for “(MI).”
High speed imaging. Digital video was recorded at 500-1000 frames per second using an Integrated Design Tools NX5-S1 digital camera. Assay duration was 500-1000 ms. Low amplitude tap stimuli was delivered as described above. Videos and still images were assembled using Fiji (imageJ) and […]
RNAscope. Zebrafish (6 dpf) were fixed using 10% normal buffered formaldehyde overnight at 4 °C, dehydrated in 100% methanol and stored at -20 °C until the assay was performed. Fluorescent in situ hybridization was performed using the RNAScope kit (Advanced Cell Diagnostics)4 with the following modifications: target retrieval was performed using 150 mM Tris pH 9.5 for 15 minutes at 70 °C, washes were performed using 0.2x SSCT (0.01% Tween-20, […], 0.3mM TriNa-citrate, pH7), samples were stored overnight after probe hybridization and 2x 5 minute washes in 5x SSC ([…], pH7) at room temperature before amplification and detection steps were performed the following day.
Viability. Animals were scored manually to determine viability after anesthetic treatments. 100 animals were scored per condition at 10 minutes, 1 hour and 5 hours post treatment. Strong heart rate was observed under a dissecting scope (Leica M-80) for our viability score. […]
rdkit function FingerprintMols package written for python. Tanimoto similarity function was used with a […]

[7] = compound at 20 uM then 5 uM GABA, DMSO = 1
[8] = compound at 20 uM then 5 uM GABA, Positive/Negative
[9] = larvae, low-volume acoustic stimulus

## CCOc1ccccc1NS(=O)(=O)c1ccc(OC)c(Br)c1 [compound 6030006]
Zebrafish [1]
  rescue of behavioral phenotypes by pretreatment with the GABAAR antagonist PTX: partially rescued
[2]; [7]
  Ave Norm FLIPR Score: 3.046

## COc1ccc(OC)c(NS(=O)(=O)c2ccc(OC)c(Br)c2)c1 [compound 6029941]
Zebrafish [1]
  rescue of behavioral phenotypes by pretreatment with the GABAAR antagonist PTX: partially rescued
Zebrafish [3]
  cortisol levels: None of these compounds reduced cortisol levels
[2]; [7]
  Ave Norm FLIPR Score: 14.01
[2]; [8]
  FLIPR Results: Positive

## COc1ccc(S(=O)(=O)NC2CCCC2)cc1Br [compound 6028165]
Zebrafish [4]
  optovin response (optovin-induced motor activity): only reduced the optovin response at concentrations that also reduced eASRs
Zebrafish [1]
  rescue of behavioral phenotypes by pretreatment with the GABAAR antagonist PTX: partially rescued
[2]; [7]
  Ave Norm FLIPR Score: 28.76
[2]; [8]
  FLIPR Results: Positive

## COc1ccc2[nH]c(-c3ccccc3)c(CCN(C)C)c2c1 [BGC 20-761]
Zebrafish [4]
  optovin response (optovin-induced motor activity): blocked the optovin response
Zebrafish [1]; [9]
  enhanced acoustic startle response (eASR) phenotype, in words: reproducibly caused eASRs in vivo
Zebrafish [1]
  rescue of behavioral phenotypes by pretreatment with the GABAAR antagonist PTX: partially rescued
Zebrafish [1]; zebrafish, in vivo
  Phenoscore: 0.74
Zebrafish [5]; in words
  pERK labeling (neuronal activity): reduced neuronal activity throughout most of the brain and increased activity in the caudal hindbrain neuron cluster
[2]; [7]
  Ave Norm FLIPR Score: 1.189
[2]; in the presence of GABA
  GABAAR PAM activity in FLIPR, in words: PAM activity was not observed

## CCOC(=O)c1c(C)nc(-c2ccccc2)nc1NC(=O)Cc1ccccc1 [compound 5951201]
Zebrafish [3]
  cortisol levels: None of these compounds reduced cortisol levels

## Cc1cc(/C=C2/SC(=S)NC2=O)c(C)n1-c1cccnc1 [optovin]
Zebrafish [5]; in words
  pERK labeling (neuronal activity): neuronal activity increased in many brain regions including the telencephalon and optic tectum but not in the hindbrain

## picrotoxin
Zebrafish [1]; zebrafish, in vivo
  Phenoscore: 0.03
Zebrafish [5]; in words
  pERK labeling (neuronal activity): neuronal activity increased in the telencephalon but not in the hindbrain
[2]; [7]
  Ave Norm FLIPR Score: -9.76
[2]; in the presence of GABA
  GABAAR PAM activity in FLIPR, in words: PAM activity was not observed

## CC(C)c1ccc(NS(=O)(=O)c2ccc3c(c2)OCCO3)cc1 [compound 6212662]
Zebrafish [4]
  optovin response (optovin-induced motor activity): only reduced the optovin response at concentrations that also reduced eASRs
[2]; [7]
  Ave Norm FLIPR Score: -5.179

## CCOC(=O)c1cccn1[C@H](C)c1ccccc1 [carboetomidate]
Zebrafish [1]; average phenoscore at highest scoring treatment
  phenoscore category: intermediate (intermediate phenoscores (0.51 < x < 0.71))
Zebrafish [1]; [9]
  enhanced acoustic startle response (eASR) phenotype, in words: immobilized zebrafish and caused eASRs
Zebrafish [3]
  cortisol levels: did not

## O=S(=O)(Nc1cccc(Br)c1)c1ccc2c(c1)OCCO2 [compound 6225936]
Zebrafish [4]
  optovin response (optovin-induced motor activity): only reduced the optovin response at concentrations that also reduced eASRs
Zebrafish [3]
  cortisol levels: None of these compounds reduced cortisol levels
[2]; [7]
  Ave Norm FLIPR Score: -14.7

## CN1C(=O)CN=C(c2ccccc2)c2cc(Cl)ccc21 [diazepam]
Zebrafish [1]; zebrafish, in vivo
  enhanced acoustic startle response (eASR) phenotype, in words: produced eASRs that were relatively weak and inconsistent; also recorded: produced intermediate eASR phenotypes
[2]
  Ave Norm FLIPR Score: -10.9

## CCOC(=O)c1c(C)n(Cc2ccco2)c2ccc(OC)cc12 [compound 7114005]
Zebrafish [4]
  optovin response (optovin-induced motor activity): blocked optovin-induced motor activity
[2]; [7]
  Ave Norm FLIPR Score: 15.23
[2]; [8]
  FLIPR Results: Positive

## C[C@]12CC[C@H]3[C@@H](CCC4=CC(=O)CC[C@@]43C)[C@@H]1CC[C@@H]2C(=O)CO [DOC, 11-deoxycorticosterone]
Zebrafish [1]; [9]
  enhanced acoustic startle response (eASR) phenotype, in words: most potent compounds tested
[2]; [7]
  Ave Norm FLIPR Score: -4.308

## CCCCn1c2ccccc2n2c(C(=O)OCC)c(C)nc12 [compound 5658603]
Zebrafish [4]
  optovin response (optovin-induced motor activity): did not suppress the optovin response
Zebrafish [1]
  rescue of behavioral phenotypes by pretreatment with the GABAAR antagonist PTX: rescued
[2]; [7]
  Ave Norm FLIPR Score: 55.24
[2]; [8]
  FLIPR Results: Positive

## Cc1cccc(OCCn2c(NC(=O)c3ccco3)nc3ccccc32)c1 [compound 7273455]
[2]; [7]
  Ave Norm FLIPR Score: 7.892
[2]; [8]
  FLIPR Results: Positive

## Cc1ccc(Cl)cc1NC(=O)COc1c(C)cccc1C [compound 5942595]
Zebrafish [4]
  optovin response (optovin-induced motor activity): blocked optovin-induced motor activity
Zebrafish [1]
  rescue of behavioral phenotypes by pretreatment with the GABAAR antagonist PTX: partially rescued
[2]; [7]
  Ave Norm FLIPR Score: 84.91
[2]; [8]
  FLIPR Results: Positive
[2]; in the presence of GABA
  GABAAR PAM activity in FLIPR, in words: potentiated GABAARs significantly greater than positive controls; also recorded: significantly greater than the positive controls

## CC(=O)[C@H]1CC[C@H]2[C@@H]3CCC4=CC(=O)CC[C@]4(C)[C@H]3CC[C@]12C [progesterone]
Zebrafish [1]; [9]
  enhanced acoustic startle response (eASR) phenotype, in words: most potent compounds tested
[2]; [7]
  Ave Norm FLIPR Score: 17.8
[2]; [8]
  FLIPR Results: Positive

## Nc1ccc(Oc2ccc(Cl)c3cccnc23)c(Cl)c1 [compound 5846886]
[2]; [7]
  Ave Norm FLIPR Score: -5.255

## CCCN(CCC)S(=O)(=O)c1ccc(Cl)c(Cl)c1OC [compound 6474599]
[2]; [7]
  Ave Norm FLIPR Score: 52.02
[2]; [8]
  FLIPR Results: Positive

## CCc1cc2c(=O)c(-c3ccccc3Cl)coc2cc1O [compound 7014338]
[2]; [7]
  Ave Norm FLIPR Score: -6.27

## Nc1ccc(OC(F)(F)F)cc1C(=O)c1ccccc1 [compound 7113584]
[2]; [7]
  Ave Norm FLIPR Score: -2.455

## CCOC(=O)c1c(NC(=O)C2CCCC2)sc2c1CCCC2 [compound 7282929]
[2]; [7]
  Ave Norm FLIPR Score: 17.15
[2]; [8]
  FLIPR Results: Positive

## CCCC(C)C1(CC)C(=O)NC(=S)NC1=O (stereo not shown) [thiopental]
[2]; [8]
  FLIPR Results: Positive

## CCOC(=O)c1c(N)sc2ccccc12 [compound 5142031]
[2]; [7]
  Ave Norm FLIPR Score: 5.237
[2]; [8]
  FLIPR Results: Positive

## Clc1ccc(CSc2nc3ccccc3[nH]2)cc1 [compound 5551268]
[2]; [7]
  Ave Norm FLIPR Score: -1.463

## COc1ccccc1N1CCN(C(=O)c2ccc(C(=O)c3c(C)cc(C)cc3C)cc2)CC1 [compound 6013263]
Zebrafish [1]
  rescue of behavioral phenotypes by pretreatment with the GABAAR antagonist PTX: partially rescued
[2]; [7]
  Ave Norm FLIPR Score: 1.035

## COC(=O)c1sc(NC(=O)C2CCCO2)c(C(=O)OC)c1C (stereo not shown) [compound 5690842]
[2]; [7]
  Ave Norm FLIPR Score: 12.09
[2]; [8]
  FLIPR Results: Positive

## CC(C)c1cccc(C(C)C)c1O [propofol]
Zebrafish [1]; zebrafish, in vivo
  enhanced acoustic startle response (eASR) phenotype, in words: caused enhanced acoustic startle responses
Zebrafish [5]; zebrafish, in vivo
  pERK labeling (neuronal activity): broadly reduced
[2]
  Ave Norm FLIPR Score: 34.52
  FLIPR Results: Positive
  GABAAR PAM activity in FLIPR, in words: increased fluorescence in the presence of GABA
Zebrafish [6]; 3 µM
  alive/total 10 min: 100/100
  alive/total 1 hour: 100/100
  alive/total 5 hours: 100/100
Zebrafish [6]; 6 µM
  alive/total 10 min: 100/100
  alive/total 1 hour: 100/100
  alive/total 5 hours: 100/100
Zebrafish [6]; 12 µM
  alive/total 10 min: 100/100
  alive/total 1 hour: 100/100
  alive/total 5 hours: 99/100
Zebrafish [6]; zebrafish, in vivo
  toxicity at the concentrations that caused eASRs: Neither etomidate or propofol was toxic
